Data on two molecules can be found in patent publication US4405625A, “Method of treating hyperglycemia with 1,3-dioxo-1H-benz[de]isoquinoline-2(3H)-acetic acid” (Ayerst, McKenna and Harrison Limited, priority 1979, dated 1983).

Structures are written as SMILES.

Series [1] deals with plasma insulin. Put plainly: Acute administration without glucose bolus in fasted rats: plasma insulin. The series is classed as in vivo, rat (male Sprague Dawley). The conditions noted are these: acute i.v. administration. Here is the method: (§1) Male Sprague Dawley rats (200-250 g, Canadian Breeding Laboratories, St. Constant, Quebec, Canada) were used in the experiment. There were 11 animals in the group. The animals were kept in a room with constant light-dark cycle and temperature. They were allowed food (Purina Lab Chow™) and water ad libitum for at least three days before being utilized. The animals were then fasted for 24 hours and anaesthetized with nembutal (50 mg/kg, intraperitoneally; Abbott Laboratories, Montreal, Quebec, Canada.) The jugular veins were exposed and a fasting blood sample was drawn by the transmusculature puncture method, Y. Kato, J. Dupre and J. C. Beck, Endocrinology, 93, 135 (1973), employing a sodium heparin (The Upjohn Company, Don Mills, Ontario, Canada) washed syringe. […]
(§2) Plasma insulin was measured by radioimmunoassay using a charcoal separation method, V. Herbert et al, J. Clin. Endocrinol., 25, 1375 (1965). […] Plasma glucose was measured by a glucose oxidase method employing a Beckman Glucose Analyser, see Beckman Company Manual, Palo Alto, Calif., U.S.A.
(§3) The results, noted below, are expressed as mean± S.E.M. The statistical significance of changes in the concentration of plasma glucose (mg/100 ml) and insulin (μU/ml), in response to alrestatin or the vehicle, from basal fasting values was determined on the differences between group means by the Student's […]. […]

For series [2], the system named is plasma glucose. Put plainly: Acute administration without glucose bolus in fasted rats: plasma glucose. Format: in vivo, rat (male Sprague Dawley). The following applies: acute i.v. administration. The procedure: as §1, §2, §3
A short description of series [3]: LD50 in rats. The conditions noted are these: rat, in vivo. From the text: Therefore, a good therapeutic index of safety is present.
In series [4] the test system is aldose reductase. The following applies: previously reported; cited from earlier work.
Series [5] relates to plasma glucagon. Put plainly: Arginine-induced glucagon release in intact rats. Format: in vivo, rat (male Sprague-Dawley). The following applies: arginine 100 mg/100 g i.v., 5 min. Here is the method: (§4) After light deithyl ether anaesthetization, the animals were injected with a bolus of saline or alrestatin (sodium salt form in 0.3 ml saline/100 g of body weight) in the external jugular vein followed immediately with a bolus of arginine-HCl (British Drug House ) at a dose of 100 mg/100 g of body weight, cf. […] Vehicle control animals received a second injection of saline. Five minutes later trunk blood was collected by decapitation into chilled tubes containing sodium heparin (Upjohn) and aprotinin(Trasylol™, Boehringer-Ingelheim Dorval, Quebec, Canada) (20 U and 1000 KIU per ml whole blood, respectively). Plasma was collected after centrifugation, stored at -20° C. and assayed for immunoreactive glucagon and insulin levels within 2 weeks.
(§5) Rat insulin purchased from Novo A/S, Copenhagen, Denmark, was used as unlabelled standard. […] Glucagon antiserum (Antiserum 30K, purchased from Dr. R. H. Unger, Houston, Tex., U.S.A.) was employed in the assay. […] Metab. […] Metab. […] Antibody bound hormone was separated from free hormone by conventional charcoal-dextran methods.

In series [6] the test system is plasma insulin. Put plainly: Arginine-induced insulin release in intact rats. Format: in vivo, rat (male Sprague-Dawley). The following applies: arginine 100 mg/100 g i.v.; 5 min. Here is the method: as §4, §5

On to `O=C(O)CN1C(=O)c2cccc3cccc(c23)C1=O` [alrestatin, 1,3-dioxo-1H-benz[de]isoquinoline-2(3H)-acetic acid], for which, in series [1], the “change in basal fasting plasma insulin levels vs vehicle” value was “did not significantly alter”. Besides, the “change in plasma glucose levels vs vehicle” value in series [2] was “did not significantly alter”. Moreover, the LD50 in series [3] (iv, intravenously) is 1220 ± 45 mg/kg; in series [3] (po, perorally) it was over 2500 mg/kg. The “inhibition of the enzyme aldose reductase” value in series [4] is on record as “inhibitor of the enzyme aldose reductase”.
For the molecule `N=C(N)NCCC[C@H](N)C(=O)O` [arginine, reference compound], the “stimulated glucagon release, mean above plasma hormone concentration in vehicle treated animals” value in series [5] is recorded as “about 100 pg/ml”. In series [5] (vehicles 180.6±5.8 pg/ml), this molecule returned a plasma glucagon concentration of 284.8 ± 13.7 pg/mL. For the same molecule, in series [6], the “increase of plasma insulin concentration” value is given as “about 100 μU/ml”.

Broadly, the LD50 is the dose expected to kill half of the subjects tested.
